Results on 1 compound are retold here after ChEMBL document CHEMBL1155575, “Kirkinine, a new daphnane orthoester with potent neurotrophic activity from Synaptolepis kirkii” (2000).

Common to all, as to assay type: functional, Gallus gallus
Test [1] in a line: Neurotrophic activity against chick embryo dorsal root ganglion assessed as neuronal viability at 700 nM after 2 days by Calcein-AM assay.
Test [2] in a line: Neurotrophic activity against chick embryo dorsal root ganglion assessed as neuronal viability at 7000 nM after 2 days by Calcein-AM assay.
Test [3] is described as follows: Neurotrophic activity against chick embryo dorsal root ganglion assessed as neuronal viability at 70 nM after 2 days by Calcein-AM assay.

As to `C=C(C)[C@@]12O[C@@]3(/C=C/CCCCCCCCCCCCC)O[C@@H]1[C@@H]1[C@@H]4O[C@]4(CO)[C@@H](O)[C@]4(O)C(=O)C(C)=C[C@H]4[C@@]1(O3)[C@H](C)[C@H]2OC(C)=O` [KIRKININE], the Activity in test [1] is 103%; in test [2] it was 142%; in test [3], 57%.
